Results from PubChem BioAssay (NCI).
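Where inhibition never reached the appropriate level, the endpoint shown equals the highest concentration tested. Otherwise, values were interpolated linearly from a five-concentration, 48-hour dose response in 96-well plates. The concentration for full growth arrest is given as TGI.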

How the values were obtained:
Assay in all cases: NCI tumour cell line growth inhibition, 48 h
HCC-2998 colon = tested on: HCC-2998 colon
UACC-257 melanoma = tested on: UACC-257 melanoma
SW-620 colon = tested on: SW-620 colon
MDA-MB-435 = tested on: MDA-MB-435
MALME-3M melanoma = tested on: MALME-3M melanoma
HOP-62 NSCLC = tested on: HOP-62 NSCLC
NCI-H522 lung = tested on: NCI-H522 lung
NCI/ADR-RES ovarian = tested on: NCI/ADR-RES ovarian
CAKI-1 renal = tested on: CAKI-1 renal
MDA-N = tested on: MDA-N
SR leukemia = tested on: SR leukemia
ACHN renal = tested on: ACHN renal
SNB-19 CNS = tested on: SNB-19 CNS

COc1ccc(-n2c(C)nc3ccc(NC4OCC(OC(C)=O)C(OC(C)=O)C4OC(C)=O)cc3c2=O)cc1 (stereo not drawn)
TGI (HCC-2998 colon): > 100 µM
TGI (UACC-257 melanoma): > 100 µM
TGI (SW-620 colon): > 100 µM
TGI (MDA-MB-435): > 100 µM
TGI (MALME-3M melanoma): > 100 µM
TGI (HOP-62 NSCLC): > 100 µM
TGI (NCI-H522 lung): > 100 µM
TGI (NCI/ADR-RES ovarian): > 100 µM
TGI (CAKI-1 renal): > 100 µM
TGI (MDA-N): > 100 µM
TGI (SR leukemia): > 100 µM
TGI (ACHN renal): > 100 µM
TGI (SNB-19 CNS): > 100 µM

COc1ccc(/C=N/n2c(Cc3ccccc3)n[nH]c2=O)c(OC)c1
TGI (HCC-2998 colon): > 100 µM
TGI (UACC-257 melanoma): > 100 µM
TGI (SW-620 colon): > 100 µM
TGI (MDA-MB-435): > 100 µM
TGI (MALME-3M melanoma): > 100 µM
TGI (HOP-62 NSCLC): > 59.8 µM
TGI (NCI-H522 lung): > 100 µM
TGI (NCI/ADR-RES ovarian): 86.5 µM
TGI (CAKI-1 renal): > 100 µM
TGI (MDA-N): > 100 µM
TGI (SR leukemia): > 100 µM
TGI (ACHN renal): > 56.5 µM
TGI (SNB-19 CNS): > 77.5 µM

C=C(Cl)C(Cl)(CBr)CCCC(C)C (stereo not drawn)
TGI (HCC-2998 colon): 34.1 µM
TGI (UACC-257 melanoma): 32.2 µM
TGI (SW-620 colon): > 84 µM
TGI (MDA-MB-435): > 100 µM
TGI (MALME-3M melanoma): > 100 µM
TGI (HOP-62 NSCLC): 27 µM
TGI (NCI-H522 lung): > 100 µM
TGI (NCI/ADR-RES ovarian): > 80.4 µM
TGI (CAKI-1 renal): 12.1 µM
TGI (MDA-N): 97.1 µM
TGI (SR leukemia): > 100 µM
TGI (ACHN renal): 26.2 µM
TGI (SNB-19 CNS): 47.4 µM

COC(=O)c1ccc(C)cc1C1CN=NC12Cc1c(C)cccc1C2=O (stereo not drawn)
TGI (HCC-2998 colon): > 100 µM
TGI (UACC-257 melanoma): > 81.8 µM
TGI (SW-620 colon): > 100 µM
TGI (MDA-MB-435): > 71.2 µM
TGI (MALME-3M melanoma): > 90.3 µM
TGI (HOP-62 NSCLC): > 100 µM
TGI (NCI-H522 lung): 97.4 µM
TGI (NCI/ADR-RES ovarian): 81.4 µM
TGI (CAKI-1 renal): > 100 µM
TGI (MDA-N): > 100 µM
TGI (SR leukemia): > 80.2 µM
TGI (ACHN renal): > 100 µM
TGI (SNB-19 CNS): > 100 µM

CN(C)Cc1cc(C(=O)/C=C/c2ccc(Cl)cc2Cl)cc(CN(C)C)c1O
TGI (HCC-2998 colon): 20.2 µM
TGI (UACC-257 melanoma): 17.6 µM
TGI (SW-620 colon): 11.3 µM
TGI (MDA-MB-435): 17.1 µM
TGI (MALME-3M melanoma): 23.5 µM
TGI (HOP-62 NSCLC): 12.9 µM
TGI (NCI-H522 lung): 7.29 µM
TGI (NCI/ADR-RES ovarian): 5.7 µM
TGI (CAKI-1 renal): 5.61 µM
TGI (MDA-N): 5.92 µM
TGI (SR leukemia): > 100 µM
TGI (ACHN renal): 10.9 µM
TGI (SNB-19 CNS): 19.9 µM

NC(N)=N/N=C/c1c(Cl)nc2n1CCS2
TGI (HCC-2998 colon): > 100 µM
TGI (UACC-257 melanoma): > 100 µM
TGI (SW-620 colon): > 100 µM
TGI (MDA-MB-435): > 100 µM
TGI (MALME-3M melanoma): > 100 µM
TGI (HOP-62 NSCLC): > 100 µM
TGI (NCI-H522 lung): > 100 µM
TGI (NCI/ADR-RES ovarian): > 100 µM
TGI (CAKI-1 renal): > 100 µM
TGI (MDA-N): > 100 µM
TGI (SR leukemia): > 100 µM
TGI (ACHN renal): > 100 µM
TGI (SNB-19 CNS): > 100 µM
